From patent US9555057B2, “Compositions and methods for reducing cutaneous microbiome malodor” (The Research Foundation for The State University of New York, priority 2014, dated 2017)
Entries after “also recorded” stand apart in the source; their conditions may differ.

Tests used:
[1] = tested on: Staph. epidermidis (ATCC 12228); test: Kirby-Bauer disk diffusion susceptibility test; assay type: cell-based, Staphylococcus epidermidis
Text: (§1) C. striatum and Staph. epidermidis are among the most prevalent bacteria that comprise the human cutaneous microbiota. […] The purpose of this segment was to examine whether formulations arising out of the studies reported in the prior sections that favor the growth and metabolism of Staph. epidermidis as a desirable skin entity that can inhibit the growth of C. striatum, a less desirable entity, and do so when both microorganisms are present initially at the same levels. In this regard, an adaptation of the Kirby-Bauer disk diffusion susceptibility test appeared to be relevant for such determination.
(§2) Here we have grown less than desirable C. striatum and highly desirable Staph. epidermidis, alone and in combination, under a variety of substrate conditions to determine, if the latter micro-organism could be selected over C. striatum and thereby be used as a means of reducing the presence of less desirable odor-producing C. striatum.
(§3) Compositions indicated as possible suppressants of C. striatum and/or enhancers of Staph. epidermidis were based on the prior studies above and for convenience of presentation were categorized as possible active test ingredients and then formulae and mixtures in which they were tested. Accordingly, the total number of compositions tested was eight. Careful attention was paid to sterility throughout in the preparation and handling of the compounds and compositions utilized herein.
(§4) Each of these formulae were prepared at 4 different concentrations: original as in (b), and 1.5, 2.5 and 7.5 times the original concentration. Again, all formulae were prepared under aseptic conditions.
To make compositions 1.5 times the original concentration listed above, formulae 7.5 times the original concentrations were diluted a factor of 5 with sterile distilled water. […]
Each strain was determined as resistant, intermediate, or susceptible to the ingredients, formulae and mixtures tested. After 24 hours of incubation at 37° C., the diameter of the zone of growth inhibition around each disk was measured to the nearest whole mm. […]

[2] = tested on: mixture of C. striatum and Staph. epidermidis in the ratio of 1 to 1; test: Zinc carbonate / arginine bicarbonate on odor and pH, CIL and phenylalanine medium; assay type: cell-based; details: for pH after incubation: arginine bicarbonate with zinc carbonate
[3] = tested on: C. striatum (ATCC 43751); test: Kirby-Bauer disk diffusion susceptibility test; assay type: cell-based, Corynebacterium striatum; details: for Intensity of inhibition of the growth of C. striatum (CS): Blood BHI agar plate, 37° C., 24 hours
Text: as §1, §2, §3, §4
To make compositions 1.5 times the original concentration listed above, formulae 7.5 times the original concentrations were diluted a factor of 5 with sterile distilled water. To make compositions 2.5 times the original concentration listed above, formulae 7.5 times the original concentrations were diluted three-fold with sterile distilled water. To summarize: a total of 3 ingredients, 2 formulae and 2 mixtures were tested. A total of 20 disks were prepared for tests of susceptibility to each bacterial sample and these are outlined in Table 5.2 below:
A TB syringe with a 25-27 G sterile needle was used to help break up the remains of any pellets. […] Plating Procedures • Five bacterial samples of C. striatum and Staph. epidermidis were plated on Blood BHI agar and CHROMagar plates, respectively. • 100 μl of each bacterial sample was inoculated on Blood BHI agar plates by using sterile glass bars and a turning table to facilitate each bacterial sample being spread evenly on each of the agar plates. • Each spread bacterial suspension was allowed to dry on inoculated plates for five minutes. • Paper disks were immersed, respectively, with the above 3 ingredients, 2 formulae and 2 mixtures; absorptions were saturated. • Four disks were placed on each plate with sterile forceps. • Incubated plates within 15 minutes after applying the disks to ensure test was under standardized conditions, where diffusion of the ingredients and formulae and bacterial growth commence at approximately the same time. Plates were incubated at 37° C. for 24 hours. Interpretation of Results
Each strain was determined as resistant, intermediate, or susceptible to the ingredients, formulae and mixtures tested. After 24 hours of incubation at 37° C., the diameter of the zone of growth inhibition around each disk was measured to the nearest whole mm. Plates were carefully examined for well-developed colonies within the zone of inhibition.

[4] = tested on: C. striatum, Staph. epidermidis or a 1:1 mixture thereof; details: for Sulfurous odor and Eh: zinc acetate, CIL and either arginine or arginine bicarbonate, no phenylalanine
Description: The pH of the medium with each of the different zinc salts needed some adjustment, which was done with 1 M HCl or 1 M NaOH depending upon the pH of the stock solutions of each zinc salt employed.

[5] = tested on: pure cultures of microorganisms resident on human axillary skin; details: for Odor released on catabolism: bacteria that catabolized the substrate
Description: Pure cultures of the numerically most prominent microorganisms normally resident on human axillary skin (see Table 1) were surveyed for their effects on (i) pH, (ii) Eh, (iii) ability to generate malodor and (iv) ability to generate hydrogen peroxide. Four hour incubation experiments were conducted, in which each of a wide range of carbohydrate and amino acid substrates (see Table 1) were surveyed for malodor production and related changes in pH and Eh thereto.
Each microorganism was recovered from its frozen state at −70° C. and grown at 37° C. in 10 ml of appropriate and respective culture media for a period between 24 and 48 hours (see Table 1). Incubations were carried out to middle and late exponential stages of bacterial growth under the incubation conditions indicated in Table 1. A 1.5 ml inoculum was transferred therefrom to polypropylene bottles containing 150 ml of the initial growth medium. This was then incubated at 37° C. for 24 to 48 hours. Bacteria were harvested by centrifugation (DuPone, Sorvall, Newtown, Conn.) at 10,000 g and 4° C. for 20 min. […] The sediment was then washed with sterile distilled water to remove residual growth medium. This was done by centrifuging the bacterial sediment three times at 1,740 g for 15 min at 4° C.
Each pure culture was pre-incubated at 37° C. at pH 7.0 to exhaust or reduce any stored carbohydrate and other carbon/energy sources acquired during growth in culture.
Both of these electrodes were connected to a second pH meter (pH M26 Radiometer Copenhagen NV, Denmark) and used here as a millivoltmeter. For the Eh measurements, when the Eh electrode was immersed in an incubation mixture, each Eh reading was recorded after allowing several seconds for each reading to stabilize. The Eh value was related to that of the hydrogen electrode by adding to each reading the difference between the E0 value for the Red Rod reference element-mercury and hydrogen electrodes—i.e. 270 my at 25° C.
At each time point, the odor was determined organoleptically by immersing a solid glass rod into each incubation mixture, stirring gently 3 times and then removing and carefully smelling the rod after 5 seconds. The intensity of the odor was assessed on a 0 to 4 numerical scale (0—no odor, 1—mild odor, 2—moderate odor, 3—strong odor, and 4—very strong odor).

[6] = tested on: C. striatum, Staph. epidermidis and a mixture of the two; test: Growth (colony counts on BHI agar) during 72 hour incubation with CIL, phenylalanine, zinc carbonate with or without arginine bicarbonate; assay type: cell-based
Description: The bacterial sediments produced upon centrifugation and decantation of the supernatants were stirred and made into a uniform suspension. C. striatum and Staph. epidermidis were mixed with each of C. striatum and Staph. epidermidis at 25% (v/v).
Zinc carbonate was autoclaved and suspended in sterile distilled water. All other stock solutions were sterilized by microbial filtration (Nylon, Sterile filter, pore size […], Fisher Scientific, Fairlawn, N.J. USA).
Difco BHI agar was poured into petri dish plates under sterile conditions and pre-incubated at 37° C. for 24 hours before use to ensure sterility.
The experimental and negative control samples were prepared as follows:
The final concentrations of the bacteria, C. striatum and Staph. epidermidis were each 8.3% (v/v) and the mixture of C. striatum and Staph. epidermidis were 4.15% (v/v) each.
Serial dilution of each of the samples between 10^0 and 10^10 was made. An aliquot of 100 μl from each 10^0 to 10^10 dilution was inoculated onto BHI agar plates. […] Bacterial growth was regularly checked. This was the initial test before the incubation was started.
Four successive diluted samples were selected and grown to proper densities of bacterial colonies on the agar plates; for example, 10^4 to 10^7 were appropriate dilutions for all samples in the instant experiment. Incubation of all samples (experimental and control) were continued at 37° C. for 24, 48 or 72 hours; 100 μl of each sample were taken and chosen at 4 consequent dilutions and inoculated on BHI agar plates for incubation for 24, 48 and 72 hours, respectively. Plating on BHI agar plates and incubation at 37° C. for 24 to 48 hours were carried out and bacterial growth on the BHI agar plates were checked.
The number of bacterial colonies on each plate was assessed. The plates inoculated with the mixture of C. striatum and Staph. epidermidis (i.e., Samples I and IV in the Table of Media compositions above) were counted and the number of colonies of C. striatum and Staph. epidermidis were determined from the photos of the plates.

[7] = zinc compound alone, levels tested (1%, 3%, 5%)
[8] = 3% and 5%, Blood BHI agar plates
[9] = concentration 5%, paper disk 12.7 mm

## basic zinc carbonate (ZnCO3. 3 Zn(OH)2)
[1]; [7]
  Sensitivity of Staph. epidermidis (in words): not sensitive
[2]; medium with zinc carbonate, CIL and phenylalanine, pH 4.0 to 8.0, 4 hours
  Sulfurous odor: no sulfurous odor was observed
[3]; 1%, Blood BHI agar
  Sensitivity of C. striatum (in words): not sensitive
[3]; [8]
  Sensitivity of C. striatum (in words): viability loss; also recorded: sensitive
[3]; concentration 1%
  Partial or complete inhibition, C. striatum: (p)
  Intensity of inhibition of the growth of C. striatum (CS): ±
[3]; concentration 3%
  Diameter of the zone of growth inhibition, C. striatum: 14 mm
  Partial or complete inhibition, C. striatum: (p)
  Intensity of inhibition of the growth of C. striatum (CS): + ((+) the diameter of inhibition <15 mm)
[3]; concentration 5%
  Partial or complete inhibition, C. striatum: (p)
  Intensity of inhibition of the growth of C. striatum (CS): ++ ((++) the diameter of inhibition 15-20 mm)
[3]; [9]
  Diameter of the zone of growth inhibition, C. striatum: 15 mm

## NCC(=O)[O-].NCC(=O)[O-].[Zn+2] [Zinc glycinate, zinc glycinate]
[1]; [7]
  Sensitivity of Staph. epidermidis (in words): not sensitive
[3]; 1%, Blood BHI agar
  Sensitivity of C. striatum (in words): not sensitive
[3]; [8]
  Sensitivity of C. striatum (in words): viability loss; also recorded: sensitive
[3]; concentration 3%
  Diameter of the zone of growth inhibition, C. striatum: 14 mm
  Partial or complete inhibition, C. striatum: (p)
  Intensity of inhibition of the growth of C. striatum (CS): + ((+) the diameter of inhibition <15 mm)
[3]; concentration 5%
  Partial or complete inhibition, C. striatum: (p)
  Intensity of inhibition of the growth of C. striatum (CS): ++ ((++) the diameter of inhibition 15-20 mm)
[3]; [9]
  Diameter of the zone of growth inhibition, C. striatum: 17 mm

## CC(=O)[O-].CC(=O)[O-].[Zn+2] [Zinc acetate]
[4]; pH 4.0 to 8.0, 4 hours
  Sulfurous odor and Eh: No sulfurous odor nor corresponding decrease in the Eh

## N[C@@H](CSSC[C@H](N)C(=O)O)C(=O)O [cystine]
[5]; 6.0 mM
  Odor released on catabolism: sulfurous odor

## N[C@@H](CS)C(=O)O [cysteine]
[5]; 6.0 mM
  Odor released on catabolism: sulfurous odor

## N[C@@H](Cc1ccccc1)C(=O)O [phenylalanine]
[5]; 6.0 mM, C. striatum, Staph. saprophyticus or Staph. hominis
  Odor produced on catabolism (in words): pleasant odor
[2]; medium with zinc carbonate, CIL and phenylalanine, between pH 5.0 and 8.0, 4 hours
  Pleasant odor: pleasant odor developed
[2]; phenylalanine added to zinc acetate, CIL, arginine or arginine bicarbonate media, pH 6.5 and 7.0, 4 hour
  Pleasant odor: pleasant odor appeared

## Zinc arginate
[4]; 12 mM zinc arginate, CIL and phenylalanine, pH 4.0 or 5.0, 4 hours
  Foot odor smell: mild
[4]; 12 mM zinc arginate, CIL and phenylalanine, pH 4.0 to 8.0, 4 hours
  Eh: decreased significantly
[4]; 12 mM zinc arginate, CIL and phenylalanine, pH 4.0 to 8.0, 4 hours, versus control groups
  Sulfurous odor: blocked completely
[4]; 12 mM zinc arginate, CIL and phenylalanine, pH 6.0 or above
  Foot odor generation: disappeared
[4]; C. striatum or the mixture, zinc arginate, CIL and phenylalanine, pH 5.0 to 8.0, 4 hours
  Favorable odor: evident
[4]; Staph. epidermidis alone, zinc arginate, CIL and phenylalanine, 4 hours
  Pleasant flower odor: not detected

## CC(C)C[C@H](N)C(=O)O [leucine]
[5]; 6.0 mM, Staph. saprophyticus, Staph. hominis, Staph. haemolyticus and C. minutissium, 0 to 4 scale
  Foot-web odor score: 2

## OC[C@H]1O[C@@](CO)(O[C@H]2O[C@H](CO)[C@@H](O)[C@H](O)[C@H]2O)[C@@H](O)[C@@H]1O [sucrose]
[5]; 28 mM carbohydrate, start pH 7.0, 37° C., 4 hours, across the bacteria tested
  pH response, lowest pH reached: 4.2

## CSCC[C@H](N)C(=O)O [methionine]
[5]; 6.0 mM, Staph. epidermidis, Staph. saprophyticus, C. jeikeium, C. minutissium, Brevibacterium epidermidis, P. avidum, P. acne, M. furfur
  Methyl mercaptan-like odor level: mild to moderate

## N[C@@H](Cc1c[nH]c2ccccc12)C(=O)O [tryptophan]
[5]; 6.0 mM, M. luteus and P. acne, 0 to 4 scale
  Indole/skatole odor level: 2

## N=C(N)NCCC[C@H](N)C(=O)O.O=C(O)O [Arginine bicarbonate, arginine bicarbonate]
[4]; pH 4.0 to 8.0, 4 hours
  Sulfurous odor and Eh: No sulfurous odor nor corresponding decrease in the Eh
[1]; at either 1% or 5%
  Sensitivity of Staph. epidermidis (in words): neither C. striatum nor Staph. epidermidis was susceptible
[6]; 12 mM zinc carbonate, CIL, phenylalanine, with versus without 12 mM arginine bicarbonate, 37° C., 72 hours
  Decrease of number of colonies: without arginine bicarbonate decreased sooner
[6]; media with arginine bicarbonate, 48 and 72 hours
  Colonies found in the mixture: Only colonies of Staph. epidermidis were discovered
[6]; media with arginine bicarbonate, 24 hours, 65% at 0 hours
  Staph. epidermidis share of colonies in the mixture: 90%
[2]; 12.0 mM arginine bicarbonate, CIL and phenylalanine, 37° C., 4 hours
  pH maintained: about 8.0
[2]; medium originally at pH 6.0
  pH after incubation: 6.8
[2]; medium originally at pH 7.0
  pH after incubation: 7.8
[2]; medium originally at pH 8.0
  pH after incubation: 8.0
[3]; at either 1% or 5% levels
  Sensitivity of C. striatum (in words): neither C. striatum nor Staph. epidermidis was susceptible
